Patent US20230278972A1, “SUBSTITUTED HALOALKYL SULFONANILIDE HERBICIDES” (FMC Corporation, priority 2020, published 2023)

Assays:
Type in all cases: in vivo
[1] = test system: barnyardgrass (Echinochloa crus-galli); test: Test A preemergence, barnyardgrass; conditions: Preemergence; for Barnyardgrass plant response rating: visual injury on 0 to 100 scale (0 no effect, 100 complete control), approximately 10 days; for Plant response rating, Barnyardgrass: 0 to 100 scale (0 no effect, 100 complete control)
Summary of the method: (§1)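 Whole-plant herbicidal screen in pots of loam blended with sand. Sprays used a surfactant-containing, non-phytotoxic solvent vehicle. Timing was preemergence soil-directed at planting or postemergence at the one- to two-leaf stage (2–10 cm).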

kochia (Bassia scoparia) [2] = test: Test A preemergence, kochia; conditions: Preemergence; for Kochia plant response rating: visual injury on 0 to 100 scale (0 no effect, 100 complete control), approximately 10 days; for Plant response rating, Kochia: 0 to 100 scale (0 no effect, 100 complete control)
Summary of the method: as §1

[3] = test system: ragweed (common ragweed, Ambrosia artemisiifolia); test: Test A preemergence, ragweed; conditions: Preemergence; for Ragweed plant response rating: visual injury on 0 to 100 scale (0 no effect, 100 complete control), approximately 10 days; for Plant response rating, Ragweed: 0 to 100 scale (0 no effect, 100 complete control)
Summary of the method: as §1

[4] = test system: Ryegrass, Italian (Italian ryegrass, Lolium multiflorum); test: Test A preemergence, Ryegrass, Italian; conditions: Preemergence; for Ryegrass, Italian plant response rating: visual injury on 0 to 100 scale (0 no effect, 100 complete control), approximately 10 days; for Plant response rating, Ryegrass, Italian: 0 to 100 scale (0 no effect, 100 complete control)
Summary of the method: as §1

[5] = test system: Foxtail, Giant (giant foxtail, Setaria faberi); test: Test A preemergence, Foxtail, Giant; conditions: Preemergence; for Foxtail, Giant plant response rating: visual injury on 0 to 100 scale (0 no effect, 100 complete control), approximately 10 days; for Plant response rating, Foxtail, Giant: 0 to 100 scale (0 no effect, 100 complete control)
Summary of the method: as §1

[6] = test system: pigweed (Amaranthus retroflexus); test: Test A preemergence, pigweed; conditions: for Pigweed plant response rating: visual injury on 0 to 100 scale (0 no effect, 100 complete control), approximately 10 days; for Plant response rating, Pigweed: 0 to 100 scale (0 no effect, 100 complete control)
Summary of the method: (§2)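 Seeds are sown in loam mixed with sand and sprayed on the soil surface right after planting for the preemergence test. Postemergence pots are sprayed once seedlings reach 2 to 10 cm at the one- to two-leaf stage. The same surfactant-containing, non-phytotoxic solvent formulation serves both.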

[7] = test system: barnyardgrass (Echinochloa crus-galli); test: Test A postemergence, barnyardgrass; conditions: Postemergence, 0 to 100 scale (0 no effect, 100 complete control); for Plant response rating, Barnyardgrass: 125 g ai/ha; for Barnyardgrass plant response rating: 500 g ai/ha, visual injury vs untreated controls after approx. 10 days
Summary of the method: as §2

kochia (Bassia scoparia) [8] = test: Test A postemergence, kochia; conditions: Postemergence, 0 to 100 scale (0 no effect, 100 complete control); for Plant response rating, Kochia: 125 g ai/ha; for Kochia plant response rating: 500 g ai/ha, visual injury vs untreated controls after approx. 10 days
Summary of the method: as §1

[9] = test system: ragweed (common ragweed, Ambrosia artemisiifolia); test: Test A postemergence, ragweed; conditions: Postemergence, 0 to 100 scale (0 no effect, 100 complete control); for Plant response rating, Ragweed: 125 g ai/ha; for Ragweed plant response rating: 500 g ai/ha, visual injury vs untreated controls after approx. 10 days
Summary of the method: as §1

[10] = test system: Ryegrass, Italian (Italian ryegrass, Lolium multiflorum); test: Test A postemergence, Ryegrass, Italian; conditions: Postemergence, 0 to 100 scale (0 no effect, 100 complete control); for Plant response rating, Ryegrass, Italian: 125 g ai/ha; for Ryegrass, Italian plant response rating: 500 g ai/ha, visual injury vs untreated controls after approx. 10 days
Summary of the method: as §1

[11] = test system: Foxtail, Giant (giant foxtail, Setaria faberi); test: Test A postemergence, Foxtail, Giant; conditions: Postemergence, 0 to 100 scale (0 no effect, 100 complete control); for Plant response rating, Foxtail, Giant: 125 g ai/ha; for Foxtail, Giant plant response rating: 500 g ai/ha, visual injury vs untreated controls after approx. 10 days
Summary of the method: as §1

[12] = test system: pigweed (Amaranthus retroflexus); test: Test A postemergence, pigweed; conditions: Postemergence, 0 to 100 scale (0 no effect, 100 complete control); for Plant response rating, Pigweed: 125 g ai/ha; for Pigweed plant response rating: 500 g ai/ha, visual injury vs untreated controls after approx. 10 days
Summary of the method: as §1

[13] = test system: wheat (Triticum aestivum); test: Test A postemergence, wheat; conditions: Postemergence, 0 to 100 scale (0 no effect, 100 complete control); for Plant response rating, Wheat: 125 g ai/ha; for Wheat plant response rating: 500 g ai/ha, visual injury vs untreated controls after approx. 10 days
Summary of the method: as §2

corn (Zea mays) = test: Test A postemergence, corn; conditions: Postemergence, 0 to 100 scale (0 no effect, 100 complete control); for Plant response rating, Corn: 125 g ai/ha; for Corn plant response rating: 500 g ai/ha, visual injury vs untreated controls after approx. 10 days
Summary of the method: as §1

[14] = test system: blackgrass (Alopecurus myosuroides); test: Test A postemergence, blackgrass; conditions: Postemergence, 0 to 100 scale (0 no effect, 100 complete control); for Plant response rating, Blackgrass: 125 g ai/ha; for Blackgrass plant response rating: 500 g ai/ha, visual injury vs untreated controls after approx. 10 days
Summary of the method: as §1

[15] = test system: galium (catchweed bedstraw, Galium aparine); test: Test A postemergence, galium; conditions: Postemergence, 0 to 100 scale (0 no effect, 100 complete control); for Plant response rating, Galium: 125 g ai/ha; for Galium plant response rating: 500 g ai/ha, visual injury vs untreated controls after approx. 10 days
Summary of the method: as §2

[16] = 125 g ai/ha, visual injury, approx. 10 days

| Structure (SMILES) | Plant response rating, Barnyardgrass ([1]; 500 g ai/ha) | Plant response rating, Kochia (kochia (Bassia scoparia) [2]; 500 g ai/ha) | Plant response rating, Ragweed ([3]; 500 g ai/ha) | Plant response rating, Ryegrass, Italian ([4]; 500 g ai/ha) | Plant response rating, Foxtail, Giant ([5]; 500 g ai/ha) | Plant response rating, Pigweed ([6]; 500 g ai/ha) | Plant response rating, Barnyardgrass [7] | Barnyardgrass plant response rating [7] | Plant response rating, Kochia (kochia (Bassia scoparia) [8]) | Kochia plant response rating (kochia (Bassia scoparia) [8]) | Plant response rating, Ragweed [9] | Ragweed plant response rating [9] | Plant response rating, Ryegrass, Italian [10] | Ryegrass, Italian plant response rating [10] | Plant response rating, Foxtail, Giant [11] | Foxtail, Giant plant response rating [11] | Plant response rating, Pigweed [12] | Pigweed plant response rating [12] | Plant response rating, Wheat [13] | Wheat plant response rating [13] | other results |
| --- | --- | --- | --- | --- | --- | --- | --- | --- | --- | --- | --- | --- | --- | --- | --- | --- | --- | --- | --- | --- | --- |
| Cc1cc(Cl)c(C2=NOC3(CCCC3)C2)cc1NS(=O)(=O)C(F)(F)F [Compound 185] | 100 | 0 | 70 | 100 | 100 | 80 | 0 | 20 | 0 | 10 | 0 | 40 | 0 | 0 | 0 | 0 | 0 | 40 | 0 | 0 | Barnyardgrass plant response rating ([1]; 125 g ai/ha): 70; Kochia plant response rating (kochia (Bassia scoparia) [2]; 125 g ai/ha): 0; Ragweed plant response rating ([3]; 125 g ai/ha): 20; Ryegrass, Italian plant response rating ([4]; 125 g ai/ha): 50; Foxtail, Giant plant response rating ([5]; 125 g ai/ha): 50; Pigweed plant response rating ([6]; 125 g ai/ha): 50; Plant response rating, Corn (corn (Zea mays)): 0; Corn plant response rating (corn (Zea mays)): 0; Plant response rating, Blackgrass [14]: 0; Blackgrass plant response rating [14]: 10; Plant response rating, Galium [15]: 30; Galium plant response rating [15]: 70 |
| Cc1cc(Cl)c(C2=NOC3(CCCC3)C2)cc1N(S(=O)(=O)C(F)(F)F)S(=O)(=O)C(F)(F)F [Compound 186] | 100 | 70 | 50 | 100 | 100 | 80 | 10 | 20 | 10 | 40 | 40 | 60 | 0 | 20 | 0 | 20 | 0 | 50 | 0 | 30 | Barnyardgrass plant response rating ([1]; 125 g ai/ha): 60; Kochia plant response rating (kochia (Bassia scoparia) [2]; 125 g ai/ha): 20; Ragweed plant response rating ([3]; 125 g ai/ha): 20; Ryegrass, Italian plant response rating ([4]; 125 g ai/ha): 60; Foxtail, Giant plant response rating ([5]; 125 g ai/ha): 60; Pigweed plant response rating ([6]; 125 g ai/ha): 20; Plant response rating, Corn (corn (Zea mays)): 0; Corn plant response rating (corn (Zea mays)): 30; Plant response rating, Blackgrass [14]: 0; Blackgrass plant response rating [14]: 20; Plant response rating, Galium [15]: 60; Galium plant response rating [15]: 80 |
| C#CCN(CC#C)C(=O)c1cc(NS(=O)(=O)C(F)(F)F)c(C)cc1C [Compound 187] | 100 | 80 | 90 | 100 | 100 | 80 | 90 | 90 | 50 | 70 | 80 | 90 | 90 | 80 | 80 | 90 | 30 | 60 | 70 | 70 | Barnyardgrass plant response rating ([1]; 125 g ai/ha): 100; Kochia plant response rating (kochia (Bassia scoparia) [2]; 125 g ai/ha): 80; Ragweed plant response rating ([3]; 125 g ai/ha): 70; Ryegrass, Italian plant response rating ([4]; 125 g ai/ha): 100; Foxtail, Giant plant response rating ([5]; 125 g ai/ha): 100; Pigweed plant response rating ([6]; 125 g ai/ha): 70; Plant response rating, Corn (corn (Zea mays)): 80; Corn plant response rating (corn (Zea mays)): 90; Plant response rating, Blackgrass [14]: 20; Blackgrass plant response rating [14]: 20; Plant response rating, Galium [15]: 80; Galium plant response rating [15]: 80 |
| CCN(CC)C(=O)c1cc(NS(=O)(=O)C(F)(F)F)c(C)cc1C [Compound 188] | 90 | 60 | 50 | 100 | 100 | 90 | 10 | 70 | 0 | 0 | 20 | 70 | 0 | 40 | 0 | 20 | 20 | 80 | 40 | 70 | Plant response rating, Barnyardgrass [1, 16]: 60; Plant response rating, Kochia (kochia (Bassia scoparia) [2]; [16]): 20; Plant response rating, Ragweed [3, 16]: 40; Plant response rating, Ryegrass, Italian [4, 16]: 50; Plant response rating, Foxtail, Giant [5, 16]: 0; Plant response rating, Pigweed [6, 16]: 50; Plant response rating, Corn (corn (Zea mays)): 10; Corn plant response rating (corn (Zea mays)): 30; Plant response rating, Blackgrass [14]: 0; Blackgrass plant response rating [14]: 0; Plant response rating, Galium [15]: 40; Galium plant response rating [15]: 50 |
| C#CCN(C)C(=O)c1cc(NS(=O)(=O)C(F)(F)F)c(C)cc1C [Compound 189] | 100 | 100 | 90 | 100 | 100 | 100 | 80 | 90 | 20 | 80 | 90 | 90 | 80 | 80 | 60 | 90 | 60 | 90 | 50 | 70 | Plant response rating, Barnyardgrass [1, 16]: 80; Plant response rating, Kochia (kochia (Bassia scoparia) [2]; [16]): 80; Plant response rating, Ragweed [3, 16]: 80; Plant response rating, Ryegrass, Italian [4, 16]: 90; Plant response rating, Foxtail, Giant [5, 16]: 100; Plant response rating, Pigweed [6, 16]: 90; Plant response rating, Corn (corn (Zea mays)): 20; Corn plant response rating (corn (Zea mays)): 80; Plant response rating, Blackgrass [14]: 30; Blackgrass plant response rating [14]: 20; Plant response rating, Galium [15]: 90; Galium plant response rating [15]: 90 |
